Measurements reported in patent US7507742B2, “Spirocyclic derivatives” (Pfizer Inc., priority 2005, dated 2009).
Each block holds one molecule with its values, some of them ahead of it.

Key:
PDE7B = molecular target: T1, PDE7B (Homo sapiens, UniProt Q9NP56); assay: PDE7B inhibition, [3H]-cAMP scintillation proximity assay; type: biochemical; settings: IC50 converted to Ki by Cheng-Prussof equation; cell lysate with full length enzyme, ~25 nM cAMP
T1 construct: carried out using cell lysate containing full length PDE7A and PDE7B enzyme; made in house
Method: (§1) The ability of the compounds of formula (I) to inhibit PDE7 may be measured using the following assay protocol.
(§2) PDE7A and PDE7B enzymes catalyse the hydrolysis of 3′,5′-cyclic adenosine monophosphate (cAMP) to the 5′adenosine monophosphate, 5′AMP. In a multiwell plate; PDE enzyme, [^3H]-cAMP and the tested compounds, are incubated at room temperature. The incubation is terminated by addition of commercially available yttrium silicate scintillation proximity assay (SPA) beads containing zinc sulphate. The yttrium silicate beads preferentially bind linear nucleotides, thus the product of the enzyme reaction, [^3H]-5′AMP binds to the bead to produce a light signal, which is detected by a scintillation counter. The amount of signal produced directly correlates with the amount of product formed, and thus the activity of the enzyme. The maximum signal is obtained where enzyme and substrate are incubated alone. The background signal is measured from wells either containing no enzyme, or from wells containing a supra-maximal concentration of a known PDE7A/B inhibitor. Each purified batch of enzyme is quality controlled and its Km, Vmax and specific activity determined from kinetic studies before use in compound inhibition studies. The inhibition of the enzyme, by a test compound, is calculated relative to the maximum and background responses.
(§3) The optimisation of this assay has been carried out using cell lysate containing full length PDE7A and PDE7B enzyme. The concentration of the enzyme in this cell lysate sample is unknown, so the specific activity of the cell lysate is used as a measure to ensure that the same activity per well is used despite any batch-to-batch variation of concentration/activity.
(§4) PDE7 stock enzyme was prepared and kept at −20° C. in appropriately sized aliquots to reduce the number of freeze/thaw cycles. […] PDE7A is diluted to 1/8000 and PDE7B to 1/10000.
(§5) The final assay [cAMP] of ˜25 nM is required, so ˜50 nM [^3H]-cAMP was prepared.
(§6) Compound dilutions and “background” wells were made 30 stronger than required in the assay plate to allow for 1 μl compound to be diluted by 29 μl of other assay components (14 μl enzyme and 15 μl radioligand). Thus for a final assay concentration of 10 μM, the compound must be at 300 μM in the compound addition plate. 4 mM stocks of compound are supplied in 100% DMSO (or are made up @ 4 mM from powder submissions). This requires 1/13.33 dilution in DMSO to be made.
(§7) 1 μl test compound was transferred into a suitable multi-well assay plate immediately prior to reagent assay addition, 14 μl enzyme solution was then added to the assay plate, followed by 15 μl substrate solution (ie: final assay volume 30 μl, with a final screening compound concentration of […]). The plate was then sealed using a plate sealer and incubated at room temperature for 45 min on the plate shaker.
(§8) 30 μl Yttrium Silicate PDE4 SPA beads were then added, ensuring constant stirring of the beads to give even distribution in the assay plate. The plate was then sealed using a plate sealer and incubated at room temperature for 30 mins on the plate shaker. The beads were then allowed to settle for 30 mins, before spinning the plates for 1 min at 200 g.
(§9) The plates were then read on a suitable radioactive counter, for example NXT-TopCount™ (available from Perkin Elmer) using the relevant protocol (30 second read time per well).
(§10) The data was fitted to a sigmoid curve using a least squares algorithm.
(§11) The IC50 value was converted to a K^i value using the Cheng-Prussof equation: […]

[1] = Human hepatic metabolic stability in cryopreserved human hepatocytes; type: in vitro ADME; settings: human, hepatocytes, pH 7.4
Method: (§12) The human hepatic metabolic stability of the compounds of Examples 1-7 of the present application were assessed in the model described below. The compound of Example 75 of WO 02/074754, 5′-carboxypropoxy-8′-chloro-spiro[cyclohexane-1-4′-(3′,4′-dihydro)quinazolin]-2′(1′H)-one (hereinafter “Compound A”), which is believed to represent the closest state of the art, was used as a comparison.
(§13) Hepatocytes are used as an in vitro system to monitor hepatic metabolism as these intact cells contain all the hepatic enzymes found in vivo, including phase I enzymes, such as cytochrome P450 oxidases (CYPs), aldehyde oxidases and monoamine oxidases (MAOs), and phase 11 enzymes, such as UDP-glucuronyltransferases and sulfotransferases. Cryopreserved human hepatocytes are prepared from 5 donors and suspended in Williams' E media. 4-(2-hydroxyethyl)-1-piperazineethanesulfonic acid (HEPES) is added to a final concentration of 50 mM and pH is adjusted to 7.4. Test substrates are dissolved in DMSO are added to the hepatocytes to give a substrate concentration of 1 μM, with a final DMSO concentration in the incubation below 0.1%. The experiments are performed in 96 or 384 well plates at 37° C., with a hepatocyte density of 0.5 million viable cells/mL. Sampling times of 10, 20, 30, 60, 90, and 120 minutes are used and analytical quantitation is by LC-MS/MS. The intrinsic clearance (apparent) is calculated using the formula: CLint, app=[−slope/0.5 M cells/mL]·1000 μL/mL=μL/min/M cells.
(§14) The human hepatic metabolic stability of the compounds of the present invention was tested according to the above protocol.

[2] = Free fraction of unbound drug in plasma used for the human estimate; type: in vitro ADME; settings: Table 7, used to convert Clu man to Clman; for fraction unbound: human, plasma, read-out: fup (free fraction of unbound drug in plasma)
Source text: (§15) Based on the above pharmacokinetic data in the rat, the likely human pharmacokinetics of the compounds of Examples 1 and 2, and that of Compound A, can be estimated as follows. • Scaling the unbound rat plasma clearance (Clu rat) observed following intravenous administration to estimate an unbound human plasma clearance (Clu man) using the following relationship: Clu man=Clu rat*(BWman/BWrat)^0.75 where BWman & BWrat are the average body weights of man (70 kg) and rat (0.25 kg) respectively, and units of clearance are in ml/min. • Converting Clu man to estimate total blood clearance in man (Clman): Clman=[(Clu man)*fup]/B:P where fup is the free fraction of unbound drug in plasma and B:P is the blood to plasma ratio in human blood. • An estimate of human half-life is presented for each compound, derived using the relationship: T1/2=[In(2)*Vd]/Cl where T1/2 is the estimated human half-life in hours, Vd is the volume of distribution in man (assumed to be 0.2 L/kg, due to the physicochemistry of this series) and Cl is the human clearance.

Human Hepatocytes = assay: Human hepatic metabolic stability in cryopreserved human hepatocytes; type: in vitro ADME; settings: intrinsic clearance (apparent); 1 μM substrate, 0.5 million viable cells/mL, 37° C., 5 donors
Method: as §12, §13, §14

[3] = Fraction unbound in rat plasma; type: in vitro ADME; settings: for fraction unbound: read-out: fup (fraction unbound in rat plasma)
Rat IV pharmacokinetics = type: in vivo
Method: The pharmacokinetic properties of the compounds of Examples 1 and 2 were tested in the rat model described below. The compound of Example 75 of WO 02/074754, 5′-carboxypropoxy-8′-chloro-spiro[cyclohexane-1-4′-(3′,4′-dihydro)quinazolin]-2′(1′H)-one (hereinafter “Compound A”), which is believed to represent the closest state of the art, was used as a comparison.
The test compounds were administered to male rats (each rat receiving one compound), via the tail vein, at a dose of 1 mg/kg (0.08 mg/kg for the compound of Example 1). Blood samples were withdrawn from the rats via a surgically implanted jugular vein cannula at predetermined time-points after administration, and centrifuged to produce plasma. Plasma samples were analysed via a specific LC-MS/MS assay for the quantification of drug in plasma. The resulting plasma concentration-time curves were interrogated using a non-compartmental pharmacokinetic analysis in order to understand the disposition of each compound. The resulting output was subsequently used to estimate the likely human pharmacokinetic profile, as described below.
The mean, dose normalised, pharmacokinetic profiles of the compounds of Examples 1 and 2, as well as that of Compound A, following 1 mg/kg intravenous administration are shown in Table 6 below and in FIG. 1.

[4] = Estimate of human pharmacokinetics by scaling rat unbound clearance; settings: for Clu man: estimated human clearance scaled from rat: Clu rat*(BWman/BWrat)^0.75, 70 kg man, 0.25 kg rat; for half-life: human, T1/2=[ln(2)*Vd]/Cl, Vd in man assumed 0.2 L/kg, read-out: Estimated T1/2 (human half-life) (converted)
Source text: as §15

[5] = Blood to plasma ratio in human blood; type: in vitro ADME; settings: for blood plasma ratio: human, read-out: B:P (blood to plasma ratio)
Source text: as §15

PDE7A = molecular target: T2, PDE7A (Homo sapiens, UniProt Q13946); assay: PDE7A inhibition, [3H]-cAMP scintillation proximity assay; type: biochemical; settings: IC50 converted to Ki by Cheng-Prussof equation; cell lysate with full length enzyme, ~25 nM cAMP
T2 construct: carried out using cell lysate containing full length PDE7A and PDE7B enzyme; made in house
Method: as §1, §2, §3, §4, §5, §6, §7, §8, §9, §10, §11

[6] = male rats, intravenous 1 mg/kg (0.08 mg/kg for Example 1)

T1 sequence (Q9NP56 whole entry, species assumed): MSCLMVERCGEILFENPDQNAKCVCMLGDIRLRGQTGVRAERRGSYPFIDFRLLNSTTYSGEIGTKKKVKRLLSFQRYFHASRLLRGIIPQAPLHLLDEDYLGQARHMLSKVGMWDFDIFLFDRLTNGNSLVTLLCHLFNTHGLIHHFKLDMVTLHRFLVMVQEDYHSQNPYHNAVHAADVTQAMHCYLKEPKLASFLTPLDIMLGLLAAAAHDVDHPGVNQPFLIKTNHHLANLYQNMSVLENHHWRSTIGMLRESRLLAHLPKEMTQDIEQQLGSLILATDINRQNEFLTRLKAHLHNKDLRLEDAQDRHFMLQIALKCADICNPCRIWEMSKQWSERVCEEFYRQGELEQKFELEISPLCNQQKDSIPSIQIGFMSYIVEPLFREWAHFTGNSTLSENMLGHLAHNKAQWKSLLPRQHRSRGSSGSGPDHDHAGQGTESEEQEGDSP
T2 sequence (Q13946 whole entry, species assumed): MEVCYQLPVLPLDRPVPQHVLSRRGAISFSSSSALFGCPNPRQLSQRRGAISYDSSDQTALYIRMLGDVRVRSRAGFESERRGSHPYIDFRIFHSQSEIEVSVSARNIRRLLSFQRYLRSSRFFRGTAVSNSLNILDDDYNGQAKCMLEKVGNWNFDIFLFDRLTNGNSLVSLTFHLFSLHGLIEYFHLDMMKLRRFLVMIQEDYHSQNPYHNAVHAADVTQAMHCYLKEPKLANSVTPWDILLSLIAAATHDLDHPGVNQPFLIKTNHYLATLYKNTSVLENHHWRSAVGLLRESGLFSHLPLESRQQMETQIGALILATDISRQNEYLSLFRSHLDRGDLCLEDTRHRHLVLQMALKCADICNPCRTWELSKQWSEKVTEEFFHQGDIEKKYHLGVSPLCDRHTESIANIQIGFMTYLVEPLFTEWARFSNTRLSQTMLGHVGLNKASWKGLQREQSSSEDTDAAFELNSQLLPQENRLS

SMILES: O=C(O)CCCOc1ccc(Cl)c2c1C1(CCCCC1)NC(=O)N2 [Compound A, 5′-carboxypropoxy-8′-chloro-spiro[cyclohexane-1-4′-(3′,4′-dihydro)quinazolin]-2′(1′H)-one, reference compound]
fup (free fraction of unbound drug in plasma) [2]: 0.03 | Human Hepatocytes CLint (Human Hepatocytes): 25 μL/min/M cells | fup (fraction unbound in rat plasma) [3]: 0.045 | Clu (unbound rat plasma clearance) (Rat IV pharmacokinetics; Clu = Cl/fup, male rats, intravenous): 156 mL/min/kg | T1/2 (half life) (Rat IV pharmacokinetics; [6]): <1 h | Vd (volume of distribution in rat) (Rat IV pharmacokinetics; [6]): 0.4 L/kg | Cl (rat clearance) (Rat IV pharmacokinetics; male rats, intravenous 1 mg/kg (0.08 mg/kg for Example 1), mean, dose normalised): 7 mL/min/kg | Clu rat (Rat IV pharmacokinetics; unbound rat plasma clearance after intravenous administration, as repeated in Table 7): 156 mL/min/kg | Clu man [4]: 1.9 mL/min/kg | B:P (blood to plasma ratio) [5]: 0.6

SMILES: N#Cc1ccc(O[C@H]2C[C@H](C(=O)O)C2)c2c1NC(=O)NC21CCCCC1 [Example 4, trans-3-[(8′-cyano-2′-oxo-2′,3′-dihydro-1′H-spiro[cyclohexane-1,4′-quinazolin]-5′-yl)oxy]cyclobutanecarboxylic acid]
Ki (PDE7B): 144 nM | Ki (PDE7A): 11.6 nM | hepatocyte CLint at 1 μM [1]: < 5 µL/min/1e6 cells

SMILES: O=C1Nc2c(Cl)ccc(O[C@H]3C[C@@H](C(=O)O)C3)c2C2(CCCCC2)N1 [Example 1, Cis-3-[(8′-chloro-2′-oxo-2′,3′-dihydro-1′H-spiro[cyclohexane-1,4′-quinazolin]-5′-yl)oxy]cyclobutanecarboxylic acid]
Ki (PDE7B): 4.6 nM | Ki (PDE7A): 1.9 nM | fraction unbound [2]: 0.07 | hepatocyte CLint at 1 μM [1]: < 5 µL/min/1e6 cells | fraction unbound [3]: 0.07 | Clu (unbound rat plasma clearance) (Rat IV pharmacokinetics; male, rat, in vivo, iv): 27 mL/min/kg | Clu rat (Rat IV pharmacokinetics; male, rat, in vivo, iv): 27 mL/min/kg | clearance (Rat IV pharmacokinetics; male, rat, in vivo, iv): 1.9 mL/min/kg | half-life (Rat IV pharmacokinetics; male, rat, in vivo, iv): 4 h | Vd (volume of distribution in rat) (Rat IV pharmacokinetics; rat, in vivo, iv): 0.6 L/kg | Clu man [4]: 0.8 mL/min/kg | half-life [4]: 3 h | blood plasma ratio [5]: 0.6

SMILES: O=C1Nc2c(F)ccc(OCC3CC(C(=O)O)C3)c2C2(CCCCC2)N1 (centres unmarked) [Example 3, 3-[(8′-fluoro-2′-oxo-2′,3′-dihydro-1′H-spiro[cyclohexane-1,4′-quinazolin]-5′-yl)oxymethyl]cyclobutanecarboxylic acid]
Ki (PDE7B): 108 nM | Ki (PDE7A): 15.6 nM | hepatocyte CLint at 1 μM [1]: < 5 µL/min/1e6 cells

SMILES: O=C1Nc2c(Cl)ccc(O[C@H]3C[C@H](C(=O)O)C3)c2C2(CCCCC2)N1 [Example 2]
Ki (PDE7B): 13.4 nM | Ki (PDE7A): 3.1 nM | fraction unbound [2]: 0.01 | hepatocyte CLint at 1 μM [1]: < 5 µL/min/1e6 cells | fraction unbound [3]: 0.1 | Clu (unbound rat plasma clearance) (Rat IV pharmacokinetics; male, rat, in vivo, iv): 70 mL/min/kg | Clu rat (Rat IV pharmacokinetics; male, rat, in vivo, iv): 70 mL/min/kg | clearance (Rat IV pharmacokinetics; male, rat, in vivo, iv): 0.7 mL/min/kg | half-life (Rat IV pharmacokinetics; male, rat, in vivo, iv): 11 h | Vd (volume of distribution in rat) (Rat IV pharmacokinetics; rat, in vivo, iv): 0.7 L/kg | Clu man [4]: 0.2 mL/min/kg | half-life [4]: 10 h | blood plasma ratio [5]: 0.7

Next, values leading:

Ki (PDE7B): 17.6 nM | hepatocyte CLint at 1 μM [1]: < 5 µL/min/1e6 cells
SMILES: O=C1Nc2c(Cl)ccc(O[C@H]3C[C@H](C(=O)O)C3)c2C2(CCCCCC2)N1 [Example 6, Trans-3-[(8′-chloro-2′-oxo-2′,3′-dihydro-1′H-spiro[cycloheptyl-1,4′-quinazolin]-5′-yl)oxy]cyclobutanecarboxylic acid]

Ki (PDE7B): 140 nM | Ki (PDE7A): 19.8 nM | hepatocyte CLint at 1 μM [1]: < 5 µL/min/1e6 cells
SMILES: O=C1Nc2c(Cl)ccc(O[C@H]3C[C@H](C(=O)O)C3)c2C2(CCCC2)N1 [Example 7, Trans-3-[(8′-chloro-2′-oxo-2′,3′-dihydro-1′H-spiro[cyclopentyl-1,4′-quinazolin]-5′-yl)oxy]cyclobutanecarboxylic acid]

Ki (PDE7B): 1420 nM | Ki (PDE7A): 276 nM | hepatocyte CLint at 1 μM [1]: < 5 µL/min/1e6 cells
SMILES: O=C1Nc2c(F)ccc(OCC3(C(=O)O)CCC3)c2C2(CCCCC2)N1 [Example 5, 1-[(8′-fluoro-2′-oxo-2′,3′-dihydro-1′H-spiro[cyclohexane-1,4′-quinazolin]-5′-yl)oxymethyl]cyclobutanecarboxylic acid]
